From publication PMC8204306 (ACS Infectious Diseases, 2021) come the findings set out here.

The target in the assay is EchA19 (Mycobacterium tuberculosis, UniProt O53561).
Sequence of EchA19 (O53561 whole entry): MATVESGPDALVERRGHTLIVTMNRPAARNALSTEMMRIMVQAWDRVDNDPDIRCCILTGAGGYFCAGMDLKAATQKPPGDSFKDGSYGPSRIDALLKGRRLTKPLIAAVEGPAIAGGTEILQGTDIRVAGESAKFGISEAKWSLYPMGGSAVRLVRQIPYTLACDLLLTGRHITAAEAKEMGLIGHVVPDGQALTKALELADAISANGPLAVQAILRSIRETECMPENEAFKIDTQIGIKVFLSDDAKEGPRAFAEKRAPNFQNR

As to `C[C@H](/C=C/C(=O)SCCNC(=O)CCNC(=O)[C@H](O)C(C)(C)COP(=O)(O)OP(=O)(O)OC[C@H]1O[C@@H](n2cnc3c(N)ncnc32)[C@H](O)[C@@H]1OP(=O)(O)O)[C@H]1CC[C@H]2[C@@H]3CCC4=CC(=O)CC[C@]4(C)[C@H]3CC[C@]12C` [3-OCDO-CoA], the “hydration product identified by MALDI MS and 1H NMR” value is “both EchA19 and ChsH3 performed the hydration reaction on 3-OCDO-CoA”.
